Laboratory results taken from ChEMBL document CHEMBL1123746, “Synthesis of 5-beta-D-ribofuranosylnicotinamide and its N-methyl derivative. The isosteric and isoelectronic analogues of nicotinamide nucleoside” (1987).
Calls of active or inactive are those of the source. The calls are words filed in the database; no cut-off is given here.

Assays:
[1] = system: MOLT-3; test: In vitro inhibitory activity against the growth of F-Molt-3 tumor cells at a concentration of 15.0 ug/mL; Inactive; format: functional, cell-based; conditions: Homo sapiens
[2] = system: P815; test: In vitro inhibitory activity against the growth of P-815 tumor cells at a concentration of 16.0 ug/mL; Inactive; format: functional, cell-based; conditions: Mus musculus
[3] = system: HL-60; test: In vitro inhibitory activity against the growth of HL-60 tumor cells at a concentration of 24.0 ug/mL; Inactive; format: functional, cell-based; conditions: Homo sapiens
[4] = system: CCRF-CEM; test: In vitro inhibitory activity against the growth of CCRF-CEM tumor cells at a concentration of 13.0 ug/mL; Inactive; format: functional, cell-based; conditions: Homo sapiens
[5] = Compound tested for the inhibition of ADP-ribosylation in protein synthesis; Inactive; format: functional
[6] = Compound tested for the inhibition of IMP-dehydrogenase causing a profound depletion of GMP anf accumulation of IMP; Active; format: functional

Activity [6] | SMILES | Activity [5] | further results
 | C[n+]1cc(C(N)=O)cc(C2O[C@H](CO)[C@@H](O)[C@H]2O)c1 (single isomer, unassigned) |  | inhibition [1]: inactive; inhibition [2]: inactive; inhibition [3]: inactive; inhibition [4]: inactive
 | C[n+]1cc(C(N)=O)cc([C@@H]2O[C@H](COP(=O)([O-])OP(=O)(O)OC[C@@H]3O[C@H](n4cnc5c(N)ncnc54)[C@@H](O)[C@H]3O)[C@@H](O)[C@H]2O)c1 | inactive | 
Active | NC(=O)c1csc([C@@H]2O[C@H](CO)[C@@H](O)[C@H]2O)n1 |  | 
 | NC(=O)c1cncc([C@@H]2O[C@H](COP(=O)(O)OP(=O)(O)OC[C@@H]3O[C@H](n4cnc5c(N)ncnc54)[C@@H](O)[C@H]3O)[C@@H](O)[C@H]2O)c1 | inactive | 
Active | NC(=O)c1csc([C@H]2O[C@@H](COP(=O)(O)OP(=O)(O)OC[C@H]3O[C@@H](n4cnc5c(N)ncnc54)[C@H](O)[C@@H]3O)[C@H](O)[C@@H]2O)n1 |  | 
